Laboratory results reported in the supplement of paper PMC13380429.

Assays:
[1] = tested on: U2OS; assay: relative viability EC50 (midpoint between 100% and the lowest measured viability); higher = less toxic; conditions: 72 h
[2] = tested on: Caco-2; assay: as above; conditions: 72 h
[3] = tested on: A549-ACE2 infected with SARS-CoV-2; assay: SARS-CoV-2 infection rate relative to DMSO; higher = more infection; conditions: 24 h
[4] = tested on: A549-ACE2 infected with SARS-CoV-2; assay: cell count relative to DMSO; higher = less toxic; conditions: 24 h
[5] = tested on: Vero E6; assay: cell viability relative to DMSO; higher = less toxic; conditions: 72 h
[6] = tested on: U2OS; assay: as above; conditions: 72 h
[7] = tested on: Caco-2; assay: as above; conditions: 72 h
[8] = tested on: Calu-3; assay: as above; conditions: 72 h
[9] = tested on: HepG2; assay: as above; conditions: 72 h
[10] = tested on: Vero E6; assay: drug sensitivity score (DSS) for viability; higher = more toxic; extreme values may be limits of the assay; conditions: 72 h
[11] = tested on: U2OS; assay: as above; conditions: 72 h
[12] = tested on: Caco-2; assay: as above; conditions: 72 h
[13] = tested on: Calu-3; assay: as above; conditions: 72 h
[14] = tested on: HepG2; assay: as above; conditions: 72 h
[15] = tested on: A549-ACE2; assay: phospholipidosis EC50; higher = less potent phospholipidosis inducer
[16] = tested on: A549-ACE2 infected with SARS-CoV-2; assay: morphology score (similarity to uninfected cells); higher = more like uninfected cells; conditions: 24 h
[17] = tested on: A549-ACE2; assay: drug-induced phospholipidosis relative to tamoxifen; higher = more phospholipidosis
[18] = tested on: Vero E6; assay: relative viability EC50 (midpoint between 100% and the lowest measured viability); higher = less toxic; conditions: 72 h
[19] = tested on: Calu-3; assay: as above; conditions: 72 h
[20] = tested on: HepG2; assay: as above; conditions: 72 h

CSc1ccc2c(c1)[C@H](N1CCN(C)CC1)Cc1ccccc1S2 (racemic) [metitepine]
Conditions | drug sensitivity score | relative viability EC50 [µM]
[1] | – | > 10
[2] | – | 3.35
[10] | 1.1 | –
[11] | 0 | –
[12] | 2.6 | –
[13] | 0.8 | –
[14] | 1.8 | –

Conditions | SARS-CoV-2 infection rate [%] | cell count [%] | cell viability [%] | morphology score | phospholipidosis EC50 [µM]
[3], 0.1 µM | 106 | – | – | – | –
[3], 0.3 µM | 90 | – | – | – | –
[3], 1 µM | 88 | – | – | – | –
[3], 3 µM | 47 | – | – | – | –
[4], 0.1 µM | – | 101 | – | – | –
[4], 0.3 µM | – | 104 | – | – | –
[4], 1 µM | – | 108 | – | – | –
[4], 3 µM | – | 94 | – | – | –
[5], 1 nM | – | – | 106 | – | –
[5], 10 nM | – | – | 104 | – | –
[5], 100 nM | – | – | 102 | – | –
[5], 1000 nM | – | – | 101 | – | –
[5], 10000 nM | – | – | 71.6 | – | –
[6], 1 nM | – | – | 98.9 | – | –
[6], 10 nM | – | – | 97.6 | – | –
[6], 100 nM | – | – | 97.1 | – | –
[6], 1000 nM | – | – | 97.2 | – | –
[6], 10000 nM | – | – | 93.2 | – | –
[7], 1 nM | – | – | 108 | – | –
[7], 10 nM | – | – | 92.9 | – | –
[7], 100 nM | – | – | 99.2 | – | –
[7], 1000 nM | – | – | 102 | – | –
[7], 10000 nM | – | – | 48.5 | – | –
[8], 1 nM | – | – | 98.4 | – | –
[8], 10 nM | – | – | 101 | – | –
[8], 100 nM | – | – | 98.2 | – | –
[8], 1000 nM | – | – | 104 | – | –
[8], 10000 nM | – | – | 73.2 | – | –
[9], 1 nM | – | – | 101 | – | –
[9], 10 nM | – | – | 107 | – | –
[9], 100 nM | – | – | 103 | – | –
[9], 1000 nM | – | – | 99 | – | –
[9], 10000 nM | – | – | 64.3 | – | –
[15], 24 h | – | – | – | – | 3.04
[15], 48 h | – | – | – | – | 5.86
[15], 72 h | – | – | – | – | 9.23
[16], 0.1 µM | – | – | – | 0.14 | –
[16], 0.3 µM | – | – | – | 0.39 | –
[16], 1 µM | – | – | – | 0.32 | –
[16], 3 µM | – | – | – | 0.72 | –

drug-induced phospholipidosis [%], [17]
Conditions | 0.3 µM | 0.833333 µM | 3.33333 µM | 6.66667 µM | 10 µM | 30 µM
24 h | 7.38 | 6.64 | 62.5 | 91.7 | 105 | 86.3
48 h | 6.3 | 11.3 | 47.9 | 92.1 | 115 | –
72 h | 8.87 | 6.23 | 37.4 | 86.6 | 125 | –

CN1Cc2ccccc2[C@@H]2c3cccc4[nH]cc(c34)C[C@H]21 [CY208-243]
Conditions | drug sensitivity score | relative viability EC50 [µM]
[1] | – | > 10
[2] | – | > 10
[10] | 0.4 | –
[11] | 0.3 | –
[12] | 0.2 | –
[13] | 0 | –
[14] | 2.1 | –
[18] | – | > 10
[19] | – | > 10

Conditions | SARS-CoV-2 infection rate [%] | cell count [%] | cell viability [%] | morphology score | phospholipidosis EC50 [µM]
[3], 0.3 µM | 100 | – | – | – | –
[3], 3 µM | 99 | – | – | – | –
[3], 10 µM | 87 | – | – | – | –
[3], 30 µM | 52 | – | – | – | –
[4], 0.3 µM | – | 97 | – | – | –
[4], 3 µM | – | 77 | – | – | –
[4], 10 µM | – | 82 | – | – | –
[4], 30 µM | – | 80 | – | – | –
[5], 1 nM | – | – | 99 | – | –
[5], 10 nM | – | – | 92.7 | – | –
[5], 100 nM | – | – | 97 | – | –
[5], 1000 nM | – | – | 99.2 | – | –
[5], 10000 nM | – | – | 83.8 | – | –
[6], 1 nM | – | – | 95.7 | – | –
[6], 10 nM | – | – | 99.4 | – | –
[6], 100 nM | – | – | 97.3 | – | –
[6], 1000 nM | – | – | 100 | – | –
[6], 10000 nM | – | – | 83.3 | – | –
[7], 1 nM | – | – | 99.1 | – | –
[7], 10 nM | – | – | 100 | – | –
[7], 100 nM | – | – | 94.8 | – | –
[7], 1000 nM | – | – | 110 | – | –
[7], 10000 nM | – | – | 82.8 | – | –
[8], 1 nM | – | – | 92.8 | – | –
[8], 10 nM | – | – | 99.8 | – | –
[8], 100 nM | – | – | 93.8 | – | –
[8], 1000 nM | – | – | 96.5 | – | –
[8], 10000 nM | – | – | 90.4 | – | –
[9], 1 nM | – | – | 102 | – | –
[9], 10 nM | – | – | 96.9 | – | –
[9], 100 nM | – | – | 92.1 | – | –
[9], 1000 nM | – | – | 99.5 | – | –
[9], 10000 nM | – | – | 59.7 | – | –
[15], 24 h | – | – | – | – | 8.69
[15], 48 h | – | – | – | – | 27.8
[16], 0.3 µM | – | – | – | -0.03 | –
[16], 3 µM | – | – | – | 0.26 | –
[16], 10 µM | – | – | – | 0.44 | –
[16], 30 µM | – | – | – | 0.69 | –

drug-induced phospholipidosis [%], [17]
Conditions | 0.3 µM | 0.833333 µM | 3.33333 µM | 6.66667 µM | 10 µM | 30 µM
24 h | 2.51 | 3.29 | 14.1 | 30.7 | 58.4 | 88.2
48 h | 1.19 | 3.01 | 17.4 | 28.4 | 77.3 | –
72 h | 4.71 | 3.9 | – | – | – | –

CCOc1cn(-c2ccc(F)cc2C)nc1C(=O)Nc1ccc(Oc2ccnc3cc(OC)c(OC)cc23)c(F)c1 [LDC1267]
Conditions | drug sensitivity score | relative viability EC50 [µM]
[1] | – | > 10
[10] | 0 | –
[11] | 0.3 | –
[12] | 2.4 | –
[13] | 2 | –
[14] | 2.2 | –
[18] | – | > 10
[20] | – | > 10

Conditions | SARS-CoV-2 infection rate [%] | cell count [%] | cell viability [%] | morphology score | phospholipidosis EC50 [µM]
[3], 0.3 µM | 91 | – | – | – | –
[3], 3 µM | 107 | – | – | – | –
[3], 10 µM | 90 | – | – | – | –
[3], 30 µM | 93 | – | – | – | –
[4], 0.3 µM | – | 102 | – | – | –
[4], 3 µM | – | 100 | – | – | –
[4], 10 µM | – | 91 | – | – | –
[4], 30 µM | – | 84 | – | – | –
[5], 1 nM | – | – | 105 | – | –
[5], 10 nM | – | – | 103 | – | –
[5], 100 nM | – | – | 103 | – | –
[5], 1000 nM | – | – | 96.9 | – | –
[5], 10000 nM | – | – | 100 | – | –
[6], 1 nM | – | – | 97.5 | – | –
[6], 10 nM | – | – | 101 | – | –
[6], 100 nM | – | – | 98.4 | – | –
[6], 1000 nM | – | – | 102 | – | –
[6], 10000 nM | – | – | 83.1 | – | –
[7], 1 nM | – | – | 95.3 | – | –
[7], 10 nM | – | – | 96.1 | – | –
[7], 100 nM | – | – | 94.7 | – | –
[7], 1000 nM | – | – | 91.9 | – | –
[7], 10000 nM | – | – | 68.7 | – | –
[8], 1 nM | – | – | 100 | – | –
[8], 10 nM | – | – | 99 | – | –
[8], 100 nM | – | – | 95.3 | – | –
[8], 1000 nM | – | – | 87.9 | – | –
[8], 10000 nM | – | – | 73 | – | –
[9], 1 nM | – | – | 106 | – | –
[9], 10 nM | – | – | 94.7 | – | –
[9], 100 nM | – | – | 99.9 | – | –
[9], 1000 nM | – | – | 88.5 | – | –
[9], 10000 nM | – | – | 76.2 | – | –
[15], 24 h | – | – | – | – | 3.79
[15], 72 h | – | – | – | – | 3.79
[16], 0.3 µM | – | – | – | 0.33 | –
[16], 3 µM | – | – | – | 0.25 | –
[16], 10 µM | – | – | – | 0.23 | –
[16], 30 µM | – | – | – | 0.15 | –

drug-induced phospholipidosis [%], [17]
Conditions | 0.3 µM | 0.833333 µM | 3.33333 µM | 6.66667 µM | 10 µM | 30 µM
24 h | 2.46 | 2.17 | 18.8 | 41.1 | 67 | 35
48 h | 6.67 | 3.21 | 28.6 | 39.5 | – | 48.4
72 h | 7.89 | 6.46 | 31.2 | 48.2 | – | 61.4
